Reference: patent EP1421935A1 (Casini, Angela, priority 2002, dated 2004)
pKi: −log10 of the molar value. Converted amounts (≈) assume the structure as drawn. Marks after values point to notes of the source that are not given here.

Assays:
[1] = drug distribution in ocular fluids and tissues after topical administration; type: in vivo, albino rabbits; conditions: mean ± standard deviation (n= 3)
[2] = solubility in aqueous buffer (UV of saturated solution); conditions: phosphate buffer, 25 °C, pH 7.4, aqueous buffer, thermodynamic from solid
Experimental: The determination of solubility in aqueous buffer is performed as follows. […] The UV absorption maximum of each compound is determined (with a Cary 3 spectrophotometer) eventually diluting the solution (with MeOH) as necessary. […] The obtained saturated solution is filtered in order to remove solid compound through a Millipore 0.45 µm filter and scanned by UV at the wavelength of the absorption maximum previously determined. Total solubility is determined by the relationship: C' = A'C/A, where C = concentration of standard solution (mg/mL); A = absorbance of standard solution; A' = absorbance of the saturated solution; C' = concentration of the saturated solution (mg/mL).

[3] = transcorneal penetration of drugs (in vitro corneal permeability); conditions: rate constant of transfer across excised rabbit cornea, pH 7.4; for kin x 10^3 (hr^-1) No epithelium: denuded epithelium; for kin x 10^3 (hr^-1) Cornea intact: intact epithelium
Experimental: The determination of transcorneal penetration of drugs is performed as follows. […] Excised rabbit corneas with either intact or denuded epithelium are used in these experiments. The pH is 7.4 and exposed area is 1.2 cm^2. Concentrations of drug of 40 - 2000 µM are placed in the epithelial chamber and samples of fluid are collected from the endothelial chamber at different intervals, up to 4 hr.

[4] = chloroform-buffer partition coefficient; type: physicochemical; conditions: pH 7.4 phosphate buffer, B compounds as sodium salts
Experimental: The determination of partition coefficient is performed as follows. Chloroform - buffer partition coefficients are obtained by equilibrating the test compound between chloroform and 0.1-ionic strength pH 7.4 phosphate buffer. The concentration in each phase is determined by UV spectrophotometry or HPLC.

[5] = test system: IOP of normotensive rabbits; assay: tonometric measurement of IOP after topical administration; type: in vivo, New Zealand albino rabbits; conditions: for Δ IOP ± SE (mm Hg) 30 min: 30 min after one drop (50 µL) of 2% solution; for Δ IOP ± SE (mm Hg) 30 min / Δ IOP ± SE (mm Hg) 60 min / Δ IOP ± SE (mm Hg) 90 min: topical, IOP control eye - IOP treated eye (N = 3); for Δ IOP ± SE (mm Hg) 60 min: 60 min after one drop (50 µL) of 2% solution; for Δ IOP ± SE (mm Hg) 90 min: 90 min after one drop (50 µL) of 2% solution; for IOP returns to baseline values after ... from administration: topical 2% solution (Fig. 2)
Experimental: Tonometric measurement of IOP are performed as follows.
Adult male New Zealand albino rabbits weighing 3-3.5 kg are used in the experiments. Three animals are used for each inhibitor studied. The experimental procedures conform to the Association for Research in Vision and Ophthalmology Resolution on the use of animals. The rabbits are kept in individual cages with food and water provided ad libitum and maintained on a 12 h light/dark cycle in a temperature controlled room, at 22-26 °C. Solutions and suspensions of inhibitors (2 %, by weight, as hydrochlorides, or sodium carboxylates) are made in distilled deionized water. The pH of these solutions is in the range of 5.5 - 7.4.
IOP is measured using a Digilab 30R pneumatonometer (BioRad, Cambridge, MA, USA) as described by Maren et al. (Maren et al., Exp. Eye Res. 55:73-79, 1992; Brechue et al., Invest. Ophthalmol. Vis. Sci. 34:2581-2587,1993). The pressure readings are matched with two-point standard pressure measurements at least twice each day using a Digilab Calibration verifier. All IOP measurements are done by the same investigator with the same tonometer. One drop of 0.2 % oxybuprocaine hydrochloride (novesine, Sandoz) diluted 1:1 with saline is instilled in each eye immediately before each set of pressure measurements. IOP is measured three times at each time interval, and the means reported. IOP is measured first immediately before drug administration, then at 30 min after the instillation of the pharmacological agent, and then each 30 minutes for a period of 4-6 hours. For all IOP experiments drug is administered to only one eye, leaving the contralateral eye as an untreated control. The ocular hypotensive activity is expressed as the average difference in IOP between the treated and control eye, in this way minimizing the diurnal, seasonal and inter-individual variations commonly observed in the rabbit (Id.). All data are expressed as mean ± SE. Ocular hypertension is elicited in the right eye of albino rabbits by the injection of α-chymotrypsin (from Sigma) as described by Sugrue et al. (Sugrue et al., Br. J. Pharmacol. 99:59-64, 1990). The IOP of operated animals is checked after approximately four weeks, and animals with an elevated pressure of 30-36 mm Hg are used at least one month after the injection of α-chymotrypsin.
In vivo IOP lowering experiments are done in normotensive and glaucomatous rabbits, with many of the new compounds reported here, due to their strong CA II and CA IV inhibitory properties, such as B7, B10-B13, B15, B18-B22, B25, B27, B28, B33, B37, and A40. […] Measurements are at 30, 60 and 90 min after administration Table 3.

[6] = biological target: T1, bCA IV (Bos taurus, UniProt Q95323); assay: CA inhibition, esterase method (4-nitrophenylacetate hydrolysis)
T1 sequence (Q95323 19-284): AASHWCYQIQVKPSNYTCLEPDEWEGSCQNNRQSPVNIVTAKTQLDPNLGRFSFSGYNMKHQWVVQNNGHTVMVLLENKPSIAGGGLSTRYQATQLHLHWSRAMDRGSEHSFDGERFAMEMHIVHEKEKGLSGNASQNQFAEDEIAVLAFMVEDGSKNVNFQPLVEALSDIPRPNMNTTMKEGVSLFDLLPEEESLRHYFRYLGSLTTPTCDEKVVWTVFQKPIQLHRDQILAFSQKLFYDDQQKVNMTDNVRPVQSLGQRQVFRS
Experimental: (§1) Stock solutions of inhibitor (1 mM) are prepared in distilled-deionized water with 10-20% (v/v) DMSO (which is not inhibitory at these concentrations) and dilutions up to 0.01 nM are done thereafter with distilled-deionized water. Inhibitor and enzyme solutions are preincubated together for 10 min at room temperature prior to assay, in order to allow for the formation of the E-I complex.

[7] = biological target: hCA I (Homo sapiens, UniProt P00915); assay: as above
Sequence of hCA I (P00915 whole entry): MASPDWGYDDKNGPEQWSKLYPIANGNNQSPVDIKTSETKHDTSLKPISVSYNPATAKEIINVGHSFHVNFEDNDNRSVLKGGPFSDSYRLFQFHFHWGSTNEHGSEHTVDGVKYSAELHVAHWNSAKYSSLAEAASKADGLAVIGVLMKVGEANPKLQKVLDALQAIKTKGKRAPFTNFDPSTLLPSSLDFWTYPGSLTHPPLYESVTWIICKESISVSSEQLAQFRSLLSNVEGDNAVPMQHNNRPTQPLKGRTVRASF
Experimental: as §1

[8] = biological target: hCA II (Homo sapiens, UniProt P00918); assay: as above
Experimental: as §1

[9] = 1h after corneal application of one drop (50 µL) of 2% solution
[10] = 2h after corneal application of one drop (50 µL) of 2% solution

Row | Structure (SMILES) | Drug concentration (µM) Aqueous humor [1, 9] | Drug concentration (µM) Ciliary process [1, 9] | Drug concentration (µM) Cornea [1, 9] | Drug concentration (µM) Aqueous humor [1, 10] | Drug concentration (µM) Ciliary process [1, 10] | Drug concentration (µM) Cornea [1, 10] | solubility [2] | kin x 10^3 (hr^-1) No epithelium [3] | kin x 10^3 (hr^-1) Cornea intact [3] | Log P [4] | Δ IOP ± SE (mm Hg) 30 min [5] | Δ IOP ± SE (mm Hg) 60 min [5] | Δ IOP ± SE (mm Hg) 90 min [5] | pKi [6] | pKi [7] | pKi [8] | solubility at 3 h [2] | Δ IOP ± SE (mm Hg) 30 min ([5]; listed as dorzolamide) | Δ IOP ± SE (mm Hg) 60 min ([5]; listed as dorzolamide) | IOP returns to baseline values after ... from administration [5]
1 | NS(=O)(=O)c1ccc(CNC(=S)Nc2ccc(C(=O)O)cc2)cc1 [B13] | 204 ± 13 µM | 50 ± 7 µM | 123 ± 9 µM | 62 ± 4 µM | 23 ± 2 µM | 76 ± 5 µM | 46 mM (≈ 16.8 mg/mL) | 9.1 hr^-1 | 3.3 hr^-1 | 1.428 | 1.2±0.15 mm Hg | 7.0±0.15 mm Hg | 10.3±0.20 mm Hg | 7.68 | 7.33 | 8.05 | – | – | – | –
2 | NS(=O)(=O)c1ccc(CNC(=S)NC(CS)C(=O)O)cc1 (stereo not shown) [B22] | – | – | – | – | – | – | 65 mM (≈ 22.7 mg/mL) | 0.9 hr^-1 | 0.4 hr^-1 | 0.124 | – | – | – | 8.10 | 7.68 | 8.52 | – | – | – | –
3 | CCN[C@H]1C[C@H](C)S(=O)(=O)c2sc(S(N)(=O)=O)cc21 [Dorzolamide, dorzolamide, reference compound] | – | – | – | – | – | – | – | 5.2 hr^-1 | 3.0 hr^-1 | 2.0^e | 2.2±0.15 mm Hg | 4.1±0.15 mm Hg | 2.7±0.10 mm Hg | – | – | – | 60 mM (≈ 19.5 mg/mL) | 2.2 mm Hg | 4.1 mm Hg | –
4 | NS(=O)(=O)c1ccc(CNC(=S)Nc2ccccc2C(=O)O)cc1 [B11] | – | – | – | – | – | – | 41 mM (≈ 15 mg/mL) | 8.3 hr^-1 | 2.9 hr^-1 | 1.238 | – | – | – | 7.64 | 7.27 | 7.96 | – | – | – | –
5 | NS(=O)(=O)c1ccc(CNC(=S)NC(CO)C(=O)O)cc1 (stereo not shown) [B19] | – | – | – | – | – | – | 70 mM (≈ 23.3 mg/mL) | 8.5 hr^-1 | 3.3 hr^-1 | 1.662 | – | – | – | 8.05 | 7.64 | 8.70 | – | – | – | 5 to 6 h
6 | NS(=O)(=O)c1ccc(CNC(=S)NC(C(=O)O)C(O)c2ccccc2)cc1 (stereo not shown) [B20] | 205 ± 12 µM | 49 ± 5 µM | 133 ± 10 µM | 53 ± 5 µM | 15 ± 1 µM | 70 ± 9 µM | 51 mM (≈ 20.9 mg/mL) | 10.7 hr^-1 | 4.9 hr^-1 | 2.518 | – | – | – | 8.15 | 7.70 | 9.00 | – | – | – | 5 to 6 h
